{
  "source": "patent US20080181955A1",
  "about": "“Natural dietary supplement and method for enhancing human libido” (priority 2007, published 2008)",
  "origin": "cited, not measured here",
  "key": {"[1]": {"biological_target": "PDE-5 (Homo sapiens, UniProt O76074)", "settings": "resveratrol alone"}, "[2]": {"system": "nitric oxide (NO)", "settings": "resveratrol alone"}, "[3]": {"system": "human endothelial NO synthase", "settings": "polyphenolic constituents of red wine"}, "[4]": {"settings": "oral"}},
  "data": [
    {"smiles": "Oc1ccc(C=Cc2cc(O)cc(O)c2)cc1", "note": "[resveratrol]", "values": [
      {"measurement": "effect on PDE-5", "setting": "[1]", "value": "no recognizable effect on PDE-5"},
      {"measurement": "release of NO", "setting": "[2]", "value": "releases NO"}
    ]},
    {"smiles": "COc1cc(C(=O)O)ccc1O", "note": "[vanilla acid]", "values": [
      {"measurement": "eNOS expression", "setting": "[3]", "value": "enhanced eNOS expression moderately"}
    ]},
    {"smiles": "CN1CC(=O)N2[C@H](c3ccc4c(c3)OCO4)c3[nH]c4ccccc4c3C[C@@H]2C1=O", "note": "[Tadalafil, tadalafil]", "values": [
      {"measurement": "half-life", "setting": "[4]", "value": "about 17.5 hours"}
    ]},
    {"smiles": "Oc1ccc(/C=C/c2cc(O)cc(O)c2)cc1", "note": "[trans-resveratrol]", "values": [
      {"measurement": "eNOS expression", "setting": "[3]", "value": "most efficacious stimulator of eNOS expression"}
    ]},
    {"smiles": "CCCc1nn(C)c2c(=O)[nH]c(-c3cc(S(=O)(=O)N4CCN(C)CC4)ccc3OCC)nc12", "note": "[Sildenafil, sildenafil]", "values": [
      {"measurement": "half-life", "setting": "[4]", "value": "about 4 hours"}
    ]},
    {"smiles": "O=C(O)/C=C/c1ccc(O)cc1", "note": "[p-coumaric acid]", "values": [
      {"measurement": "eNOS expression", "setting": "[3]", "value": "enhanced eNOS expression moderately"}
    ]},
    {"smiles": "O=C(O)c1ccccc1", "note": "[benzoic acid]", "values": [
      {"measurement": "eNOS expression", "setting": "[3]", "value": "enhanced eNOS expression moderately"}
    ]},
    {"smiles": "O=C(O)/C=C/c1ccc(O)c(O)c1", "note": "[caffeic acid]", "values": [
      {"measurement": "eNOS expression", "setting": "[3]", "value": "enhanced eNOS expression moderately"}
    ]}
  ]
}
